Source: PubChem BioAssay AID1996
In brackets after ≈: the same amount, converted by molar mass.

Conditions: buffer; pH 7.4; 200.0 µM

Row | Structure (SMILES) | solubility kinetic [µg/mL]
1 | CCOc1cc(C)c(S(=O)(=O)NCc2ccccn2)cc1C | > 48.1
2 | Cn1ncc(Br)c1C(=O)N1CCCCCC1 | > 42.9
3 | COc1ccc(CNC(=S)NC2CCCCC2)cc1 | 38.4 (≈ 138 µM)
4 | Cc1ccc(NC(=O)CN(C)C(=O)Cc2c[nH]c3ccccc23)cc1 | > 50.3
5 | Cc1cccc(OCC2CCCN(Cc3nc(C4CC4)no3)C2)c1 (stereo unspecified) | 12.8 (≈ 39.1 µM)
6 | CC(OC(=O)CC1CCCCC1)C(=O)Nc1cccc(C#N)c1 (stereo unspecified) | 37.1 (≈ 118 µM)
7 | Cc1ccccc1N1C(=O)c2ccccc2C1O (stereo unspecified) | 35.8 (≈ 150 µM)
8 | COc1ccc(C(=O)O)cc1S(=O)(=O)NCc1cccnc1 | > 48.4
9 | Cl.O=[N+]([O-])c1ccccc1OCC(O)CNC1CCCC1 (stereo unspecified) | 46.2
10 | Cc1ccc(NC(=S)Nc2cccc3ccccc23)cc1 | 1.5 (≈ 5.13 µM)
11 | O=S(=O)(c1ccc(Cl)cc1)N1CCCCC1c1cccnc1 (stereo unspecified) | 47.7 (≈ 142 µM)
12 | Cc1c(Cl)cccc1NC(=O)CCN1CCC(C(N)=O)CC1 | > 48.6
13 | COc1cccc(/C=C/C(=O)Nc2ccccc2N2CCOCC2)c1 | 28.1 (≈ 83 µM)
14 | CCC1CN(C(=O)NCc2cccc(OC)c2)c2cc(Cl)ccc2O1 (stereo unspecified) | 4.5 (≈ 12.5 µM)
15 | CCN(CC)C(=O)CSC(Nc1cccc(F)c1)=C(C#N)C#N | > 49.9
16 | CC#CC(=O)NC1CCCN(C2Cc3ccccc3C2)C1 (stereo unspecified) | > 42.4
17 | CCOc1ccc2nc(NC(=O)CN3CCN(CC)CC3)sc2c1 | 47.6 (≈ 137 µM)
18 | CCOC(=O)N1CCN(C(=O)Cc2ccccc2[N+](=O)[O-])CC1 | > 48.2
19 | CCCOc1cccc(C(=O)Nc2cccc3ncccc23)c1 | 7.6 (≈ 24.8 µM)
20 | COc1ccc([N+](=O)[O-])cc1NC(=O)CCSCCc1ccccn1 | > 54.2
21 | O=[N+]([O-])/C=C1\C=CC=CN1Cc1ccc(Cl)cc1 | 31.7 (≈ 121 µM)
22 | CNC(=S)NCc1ccc2[nH]c(C)cc2c1 | > 35

Row | Structure (SMILES) | solubility kinetic [µg/mL]
23 | C[n+]1cccc2cccc([O-])c21.O | 25.2
24 | COc1ccc(/C=C(\C#N)C(=O)Nc2cccc(C)n2)cc1 | 0.4 (≈ 1.36 µM)
25 | COc1cc2ccccc2cc1C(=O)Nc1ccccc1Cl | < 0.7
26 | Cc1cc(N2CCOCC2)nc(SCC(=O)OCc2ccccc2)n1 | > 53.9
27 | CNc1snc(C)c1C(=O)OC(C)C(=O)Nc1ccccc1 (stereo unspecified) | 34.5 (≈ 108 µM)
28 | N#Cc1ccc(-c2cccnc2)nc1SCC(=O)c1ccccc1 | 2.8 (≈ 8.45 µM)
29 | O=C(OCC(=O)N1CCc2ccccc2C1)c1ccc(O)cc1 | 4.5 (≈ 14.5 µM)
30 | N#Cc1c(F)cccc1NCc1cccs1 | 1.3 (≈ 5.6 µM)
31 | CCOC(=O)c1c(NC(=S)Nc2cccnc2)sc(C)c1C | 20.1 (≈ 59.9 µM)
32 | COc1ccccc1CN1CCCCC1C(=O)O (stereo unspecified) | 35.8 (≈ 144 µM)
33 | COc1ccc([N+](=O)[O-])cc1Nc1c2ccccc2nc2ccccc12 | < 0.2
34 | O=C(CCn1c(=S)oc2ccccc21)NC1CCCCC1 | 1.6 (≈ 5.26 µM)
35 | O=C(CCCSc1nc2ccccc2[nH]1)NC1CCCCC1 | > 47.6
36 | CCCCOc1ccc(C2(C)NC(=O)NC2=O)cc1 (stereo unspecified) | 31.2 (≈ 119 µM)
37 | Cc1ccc(NC(=O)COc2ccc(Br)cn2)cc1 | 17.7 (≈ 55.1 µM)
38 | CCN(C(=O)COc1ccc(C)cc1OC)c1cccc2ccccc12 | 33.7 (≈ 96.4 µM)
39 | C=CCn1c(C)cc(C(=O)COC(=O)CCc2cc(OC)c(OC)c(OC)c2)c1C | 31.8 (≈ 76.5 µM)
40 | O=C(NC1C2CC3CC(C2)CC1C3)C1CCCCC1 (stereo unspecified) | 1.6 (≈ 6.12 µM)
41 | NS(=O)(=O)c1ccc(NC(=O)COC(=O)c2ncc(Cl)c(Cl)c2Cl)cc1 | 54.7 (≈ 125 µM)
42 | Cc1c2c(nc3ccccc13)CC(C)(C)CC2=O.Cl | 36.8
43 | COc1ccc(NC(=O)/C=C/c2ccc(OC)c(OC)c2)cn1 | 11.3 (≈ 35.9 µM)
44 | COc1ccc(C(CNC(=O)c2cccc(S(=O)(=O)N3CCOCC3)c2)N2CCOCC2)cc1 (stereo unspecified) | > 73.4

Row | Structure (SMILES) | solubility kinetic [µg/mL]
45 | COc1cc(CC(=O)Nc2nc(C)cs2)cc(OC)c1OC | 42.9 (≈ 133 µM)
46 | CNC(=O)CSc1nccn1Cc1ccc(Cl)cc1 | > 44.4
47 | CN(C(=O)CSc1nnc2n1CCCCC2)C1(C#N)CCCCC1 | > 52.1
48 | Cc1cc(C)nc(NC(=O)Nc2ccc(F)cc2F)n1 | 10.2 (≈ 36.7 µM)
49 | O=C(NC1CCCCC1)C1COc2ccccc2O1 (stereo unspecified) | > 39.2
50 | COc1ccc(OC)c(CNC(=O)CCc2cn(C)c3ccccc23)c1 | 12.7 (≈ 36 µM)
51 | C/C(=N\O)c1ccc(Cl)cc1Cl | 22.9 (≈ 112 µM)
52 | COc1ccc(N2C(=O)NC(=O)/C(=C\c3ccccc3[N+](=O)[O-])C2=O)cc1 | 54.4 (≈ 148 µM)
53 | CC(=O)N1CCN(c2ccc([N+](=O)[O-])c(NCc3cccnc3)c2)CC1 | > 53.3
54 | CN(NC(=O)c1ccccc1F)c1ccc([N+](=O)[O-])cn1 | > 43.5
55 | CC(C)NC(=S)Nc1ccc2[nH]c(=O)[nH]c2c1 | > 37.5
56 | COC(=O)c1cc(S(=O)(=O)N(C)Cc2ccco2)c[nH]1 | > 44.7
57 | COC(=O)CCCN1C(=O)c2cccc3cccc(c23)C1=O | 43.6 (≈ 147 µM)
58 | O=C(/C=C/c1ccccc1)Nc1cccc(S(=O)(=O)Nc2ccccc2F)c1 | 1 (≈ 2.52 µM)
59 | CCCc1nc2oc3c(=O)[nH]cnc3c2c2c1COC(C)(C)C2 | > 47
60 | O=C(NCCC(=O)N1CCCCC1)c1ccccc1Cl | > 44.2
61 | Cc1cccc(C)c1NC1=NCCCCC1 | > 32.4
62 | COc1ccc(N2C(=O)c3ccccc3C(C)(C)C2=O)cc1 | 5.4 (≈ 18.3 µM)
63 | CCOC(=O)CNc1nc(Cl)nc(NC(C)(C)C)n1 | > 43.2
64 | O=C(Nc1ccncc1)c1ccc(Cl)cc1 | > 34.9
65 | O=S(=O)(NCc1ccc(Cl)cc1Cl)c1cccs1 | 40.6 (≈ 126 µM)
66 | CN1C(=O)c2cccc3c(S(=O)(=O)N(C)C)ccc1c23 | 14 (≈ 48.2 µM)

Row | Structure (SMILES) | solubility kinetic [µg/mL]
67 | NS(=O)(=O)c1ccc(CCNC(=O)c2ccc(Cl)c(S(=O)(=O)NCc3ccco3)c2)cc1 | > 74.7
68 | Cc1ccc(N2C(=O)CC(Cc3ccc(Cl)cc3)C2=O)cc1 (stereo unspecified) | 7.1 (≈ 22.6 µM)
69 | COc1ccc2c(c1)CCCC21NC(=O)N(CC(=O)NCc2cccs2)C1=O (stereo unspecified) | > 59.9
70 | CCc1ccc(N(CC)C(=O)c2cn(C)c(=O)c3ccccc23)cc1 | > 50.2
71 | N#C/C(=C\c1ccc(F)c(Cl)c1)S(=O)(=O)c1ccccn1 | 44 (≈ 136 µM)
72 | CNc1nc2c(c(=O)[nH]c(=O)n2C)n1CCCc1ccccc1 | > 47
73 | CCOc1ccc(NC(=O)CNC(=O)c2ccco2)cc1 | > 43.2
74 | CC(C)(Cc1ccc(O)cc1)NC(=O)c1ccccc1 | 36.7 (≈ 136 µM)
75 | N#Cc1cccc(NS(=O)(=O)c2ccccc2Cl)c1 | > 43.9
76 | CN(C)S(=O)(=O)c1cccc(NC(=O)NCCCl)c1 | > 45.9
77 | CCOc1ccc(OCCCC(=O)N(C)CC(=O)Nc2ccccc2Br)cc1 | 5.6 (≈ 12.5 µM)
78 | COc1ccccc1CNC(=O)CS(=O)(=O)c1ccc(C)cc1 | > 50
79 | Cc1ccc(C(=O)Nc2scc(-c3ccccc3)c2C(=O)O)cc1 | > 50.6
80 | CC(=O)Oc1ccc(C(=O)NC(C)CCc2ccccc2)cc1 (stereo unspecified) | 42.2 (≈ 136 µM)
81 | COc1ncnc2c1ncn2CC1COC(C)(C)O1 (stereo unspecified) | 34.9 (≈ 132 µM)
82 | COc1ccc(CNC(=S)Nc2cccc(Cl)c2)cc1 | 3 (≈ 9.78 µM)
83 | O=C(Nc1nc2ccccc2s1)c1ccccc1 | 3.1 (≈ 12.2 µM)
84 | Cc1ccccc1NC(=O)c1sc(NC(=O)C2CC2)nc1C | 4.8 (≈ 15.2 µM)
85 | COc1ccccc1C1CCN(c2cc(O)ccc2[N+](=O)[O-])CC1 | 38.9 (≈ 118 µM)
86 | CC(NC(=O)c1ccco1)c1nc(-c2ccc(C(C)(C)C)cc2)no1 (stereo unspecified) | 0.9 (≈ 2.65 µM)
